Earlier results on 1 compound are cited in patent US8148337B2, “Vaginal compositions for treating pelvic tissue infections and traumas” (priority 2003, dated 2012).

Series [1] relates to chlamydial infection. The conditions noted are these: orally as a single dose.
The conditions of series [2]: administered rectally.

For `CC[C@H]1OC(=O)[C@H](C)[C@@H](O[C@H]2C[C@@](C)(OC)[C@@H](O)[C@H](C)O2)[C@H](C)[C@@H](O[C@@H]2O[C@H](C)C[C@H](N(C)C)[C@H]2O)[C@](C)(O)C[C@@H](C)CN(C)[C@H](C)[C@@H](O)[C@]1(C)O` [azithromycin], the “women who experience side effects” value in series [1] is 25%. Also, in series [2], the bioavailability result is “highly variable and low”.
